{
  "source": "the NIST ThermoML archive (doi:10.1021/je100484n)",
  "test": "xn = mol fraction of the nth substance listed",
  "settings": "101 kPa, Liquid",
  "note": "± gives the expanded uncertainty stated by the source.",
  "data": [
    {"molecule": "CC(C)(C)O", "note": "[2-methylpropan-2-ol] + CCCCCCC", "values": [
      {"measurement": "mass density", "setting": "303.15 K, x1 = 0.1006", "result": "679.898 ± 0.65", "unit": "kg/m3"},
      {"measurement": "mass density", "setting": "303.15 K, x1 = 0.1502", "result": "682.8 ± 0.64", "unit": "kg/m3"},
      {"measurement": "mass density", "setting": "303.15 K, x1 = 0.2", "result": "685.899 ± 0.64", "unit": "kg/m3"},
      {"measurement": "mass density", "setting": "303.15 K, x1 = 0.3", "result": "692.705 ± 0.63", "unit": "kg/m3"},
      {"measurement": "mass density", "setting": "303.15 K, x1 = 0.4", "result": "700.298 ± 0.61", "unit": "kg/m3"},
      {"measurement": "mass density", "setting": "303.15 K, x1 = 0.4998", "result": "708.705 ± 0.6", "unit": "kg/m3"},
      {"measurement": "mass density", "setting": "303.15 K, x1 = 0.6", "result": "718.327 ± 0.58", "unit": "kg/m3"},
      {"measurement": "mass density", "setting": "303.15 K, x1 = 0.7", "result": "729.448 ± 0.56", "unit": "kg/m3"},
      {"measurement": "mass density", "setting": "303.15 K, x1 = 0.7998", "result": "742.308 ± 0.54", "unit": "kg/m3"},
      {"measurement": "mass density", "setting": "303.15 K, x1 = 0.8479", "result": "749.34 ± 0.53", "unit": "kg/m3"},
      {"measurement": "mass density", "setting": "303.15 K, x1 = 0.8998", "result": "757.564 ± 0.52", "unit": "kg/m3"},
      {"measurement": "mass density", "setting": "303.15 K, x1 = 0.9499", "result": "766.164 ± 0.51", "unit": "kg/m3"},
      {"measurement": "mass density", "setting": "303.15 K, x1 = 1", "result": "775.412 ± 0.49", "unit": "kg/m3"},
      {"measurement": "mass density", "setting": "308.15 K, x1 = 0.1006", "result": "675.406 ± 0.66", "unit": "kg/m3"},
      {"measurement": "mass density", "setting": "308.15 K, x1 = 0.1502", "result": "678.262 ± 0.65", "unit": "kg/m3"},
      {"measurement": "mass density", "setting": "308.15 K, x1 = 0.2", "result": "681.327 ± 0.64", "unit": "kg/m3"},
      {"measurement": "mass density", "setting": "308.15 K, x1 = 0.3", "result": "688.078 ± 0.63", "unit": "kg/m3"},
      {"measurement": "mass density", "setting": "308.15 K, x1 = 0.4", "result": "695.628 ± 0.62", "unit": "kg/m3"},
      {"measurement": "mass density", "setting": "308.15 K, x1 = 0.4998", "result": "703.995 ± 0.61", "unit": "kg/m3"},
      {"measurement": "mass density", "setting": "308.15 K, x1 = 0.6", "result": "713.568 ± 0.59", "unit": "kg/m3"},
      {"measurement": "mass density", "setting": "308.15 K, x1 = 0.7", "result": "724.603 ± 0.57", "unit": "kg/m3"},
      {"measurement": "mass density", "setting": "308.15 K, x1 = 0.7998", "result": "737.338 ± 0.55", "unit": "kg/m3"},
      {"measurement": "mass density", "setting": "308.15 K, x1 = 0.8479", "result": "744.297 ± 0.54", "unit": "kg/m3"},
      {"measurement": "mass density", "setting": "308.15 K, x1 = 0.8998", "result": "752.448 ± 0.53", "unit": "kg/m3"},
      {"measurement": "mass density", "setting": "308.15 K, x1 = 0.9499", "result": "760.994 ± 0.51", "unit": "kg/m3"},
      {"measurement": "mass density", "setting": "308.15 K, x1 = 1", "result": "770.193 ± 0.5", "unit": "kg/m3"},
      {"measurement": "mass density", "setting": "313.15 K, x1 = 0.1006", "result": "670.867 ± 0.66", "unit": "kg/m3"},
      {"measurement": "mass density", "setting": "313.15 K, x1 = 0.1502", "result": "673.669 ± 0.66", "unit": "kg/m3"},
      {"measurement": "mass density", "setting": "313.15 K, x1 = 0.2", "result": "676.692 ± 0.65", "unit": "kg/m3"},
      {"measurement": "mass density", "setting": "313.15 K, x1 = 0.3", "result": "683.382 ± 0.64", "unit": "kg/m3"},
      {"measurement": "mass density", "setting": "313.15 K, x1 = 0.4", "result": "690.882 ± 0.63", "unit": "kg/m3"},
      {"measurement": "mass density", "setting": "313.15 K, x1 = 0.4998", "result": "699.207 ± 0.61", "unit": "kg/m3"},
      {"measurement": "mass density", "setting": "313.15 K, x1 = 0.6", "result": "708.726 ± 0.6", "unit": "kg/m3"},
      {"measurement": "mass density", "setting": "313.15 K, x1 = 0.7", "result": "719.685 ± 0.58", "unit": "kg/m3"},
      {"measurement": "mass density", "setting": "313.15 K, x1 = 0.7998", "result": "732.305 ± 0.56", "unit": "kg/m3"},
      {"measurement": "mass density", "setting": "313.15 K, x1 = 0.8479", "result": "739.195 ± 0.55", "unit": "kg/m3"},
      {"measurement": "mass density", "setting": "313.15 K, x1 = 0.8998", "result": "747.271 ± 0.54", "unit": "kg/m3"},
      {"measurement": "mass density", "setting": "313.15 K, x1 = 0.9499", "result": "755.749 ± 0.52", "unit": "kg/m3"},
      {"measurement": "mass density", "setting": "313.15 K, x1 = 1", "result": "764.884 ± 0.51", "unit": "kg/m3"},
      {"measurement": "mass density", "setting": "318.15 K, x1 = 0.1006", "result": "666.278 ± 0.67", "unit": "kg/m3"},
      {"measurement": "mass density", "setting": "318.15 K, x1 = 0.1502", "result": "669.017 ± 0.66", "unit": "kg/m3"},
      {"measurement": "mass density", "setting": "318.15 K, x1 = 0.2", "result": "671.995 ± 0.66", "unit": "kg/m3"},
      {"measurement": "mass density", "setting": "318.15 K, x1 = 0.3", "result": "678.612 ± 0.65", "unit": "kg/m3"},
      {"measurement": "mass density", "setting": "318.15 K, x1 = 0.4", "result": "686.056 ± 0.63", "unit": "kg/m3"},
      {"measurement": "mass density", "setting": "318.15 K, x1 = 0.4998", "result": "694.329 ± 0.62", "unit": "kg/m3"},
      {"measurement": "mass density", "setting": "318.15 K, x1 = 0.6", "result": "703.799 ± 0.6", "unit": "kg/m3"},
      {"measurement": "mass density", "setting": "318.15 K, x1 = 0.7", "result": "714.683 ± 0.59", "unit": "kg/m3"},
      {"measurement": "mass density", "setting": "318.15 K, x1 = 0.7998", "result": "727.201 ± 0.57", "unit": "kg/m3"},
      {"measurement": "mass density", "setting": "318.15 K, x1 = 0.8479", "result": "734.015 ± 0.56", "unit": "kg/m3"},
      {"measurement": "mass density", "setting": "318.15 K, x1 = 0.8998", "result": "742.022 ± 0.54", "unit": "kg/m3"},
      {"measurement": "mass density", "setting": "318.15 K, x1 = 0.9499", "result": "750.424 ± 0.53", "unit": "kg/m3"},
      {"measurement": "mass density", "setting": "318.15 K, x1 = 1", "result": "759.488 ± 0.52", "unit": "kg/m3"},
      {"measurement": "mass density", "setting": "323.15 K, x1 = 0.1006", "result": "661.645 ± 0.68", "unit": "kg/m3"},
      {"measurement": "mass density", "setting": "323.15 K, x1 = 0.1502", "result": "664.315 ± 0.67", "unit": "kg/m3"},
      {"measurement": "mass density", "setting": "323.15 K, x1 = 0.2", "result": "667.235 ± 0.67", "unit": "kg/m3"},
      {"measurement": "mass density", "setting": "323.15 K, x1 = 0.3", "result": "673.771 ± 0.65", "unit": "kg/m3"},
      {"measurement": "mass density", "setting": "323.15 K, x1 = 0.4", "result": "681.144 ± 0.64", "unit": "kg/m3"},
      {"measurement": "mass density", "setting": "323.15 K, x1 = 0.4998", "result": "689.366 ± 0.63", "unit": "kg/m3"},
      {"measurement": "mass density", "setting": "323.15 K, x1 = 0.6", "result": "698.776 ± 0.61", "unit": "kg/m3"},
      {"measurement": "mass density", "setting": "323.15 K, x1 = 0.7", "result": "709.587 ± 0.59", "unit": "kg/m3"},
      {"measurement": "mass density", "setting": "323.15 K, x1 = 0.7998", "result": "721.991 ± 0.57", "unit": "kg/m3"},
      {"measurement": "mass density", "setting": "323.15 K, x1 = 0.8479", "result": "728.76 ± 0.56", "unit": "kg/m3"},
      {"measurement": "mass density", "setting": "323.15 K, x1 = 0.8998", "result": "736.693 ± 0.55", "unit": "kg/m3"},
      {"measurement": "mass density", "setting": "323.15 K, x1 = 0.9499", "result": "745.02 ± 0.54", "unit": "kg/m3"},
      {"measurement": "mass density", "setting": "323.15 K, x1 = 1", "result": "754.015 ± 0.52", "unit": "kg/m3"}
    ]}
  ]
}
